# Source: paper PMC7168207, “Dibasic Derivatives of Phenylcarbamic Acid as Prospective Antibacterial Agents Interacting with Cytoplasmic Membrane” (Antibiotics, 2020)
# “And” between values parts separate entries of the source, which are not always exact repeats. Identical values can stand only once. Like-named read-outs stand apart in the source and are kept apart here.
# Key:
# S. aureus ATCC 29213 [1] = experiment: MIC, broth microdilution; format: cell-based, Staphylococcus aureus; details: Staphylococcus aureus
# Outline: (§1)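 Overnight colonies from blood agar were suspended in PBS to 0.5 McFarland and diluted to 5 × 10^5 CFU/mL final in wells. Staphylococci were tested in cation-adjusted Mueller–Hinton broth and enterococci in brain heart infusion.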
# [2] = tested on: methicillin-resistant S. aureus 63718; experiment: MIC, broth microdilution; format: cell-based, Staphylococcus aureus; details: Staphylococcus aureus, read-out: MICs
# Outline: as §1
# [3] = tested on: methicillin-resistant S. aureus SA 3202; experiment: MIC, broth microdilution; format: cell-based, Staphylococcus aureus; details: Staphylococcus aureus, read-out: MICs
# Outline: as §1
# [4] = tested on: methicillin-resistant S. aureus SA 630; experiment: MIC, broth microdilution; format: cell-based, Staphylococcus aureus; details: Staphylococcus aureus, read-out: MICs
# Outline: as §1
# [5] = tested on: vancomycin-resistant enterococci VRE 342B; experiment: MIC, broth microdilution; format: cell-based, Enterococcus faecalis; details: Enterococcus, read-out: MICs
# Outline: as §1
# [6] = tested on: vancomycin-resistant enterococci VRE 368; experiment: MIC, broth microdilution; format: cell-based, Enterococcus faecalis; details: Enterococcus, read-out: MICs
# Outline: as §1
# [7] = tested on: vancomycin-resistant enterococci VRE 725B; experiment: MIC, broth microdilution; format: cell-based, Enterococcus faecalis; details: Enterococcus, read-out: MICs
# Outline: as §1
# [8] = tested on: human monocytic leukemia THP-1 cells; experiment: in vitro antiproliferative assay (WST-1); format: cell-based; details: Homo sapiens, THP-1, 24 h, read-out: Tox IC50
# Outline: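 THP-1 cells in serum-free RPMI 1640 treated with compounds (DMSO ≤0.1%) for 24 h at 37 °C, 5% CO2, triplicate; viability by WST-1 tetrazolium read-out. IC50 from dose-response curve.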
# S. aureus ATCC 29213 [9] = experiment: crystal violet uptake (membrane permeability); format: cell-based, Staphylococcus aureus; details: 64 µg/mL, 1 h; two-way ANOVA, Tukey's test, p < 0.05
# Description: The alternation in membrane permeability was detected by crystal violet assay. Bacterial suspension treated by compounds 1f, 1g, and 1h (all 64 µg/mL) for 1 h was prepared. The uptake of crystal violet was expressed as a percentage compared to the original crystal violet solution.
# The method of crystal violet uptake was used to study membrane alteration. Bacterial suspension was cultivated to log phase in CaMH and then harvested at 4500 rpm for 5 min. The cells were washed twice and resuspended in PBS containing 64 µg/mL of the tested compounds. […] A growth control without antibiotics and a control containing the same amount of DMSO as treated tubes were included. The tubes were cultivated at 37 °C for 1 h. After that, the tubes were centrifuged at 4500 rpm for 15 min and washed twice in PBS. The cells were resuspended in PBS containing crystal violet (10 µg/mL). After 15 min incubation at 37 °C and centrifugation (15 min, 4500 rpm), the absorbance of supernatant at 595 nm was measured. The experiment was repeated three times, and the results were averaged. The percentage of crystal violet uptake was counted according to the equation:(1) % of uptake = OD595 of sample/OD595 of crystal violet solution × 100
# [10] = tested on: S. aureus ATCC 29213 biofilm; experiment: biofilm inhibition assay (crystal violet); format: cell-based, Staphylococcus aureus; details: ≥80% inhibition of biofilm formation; for MBIC80 (minimum biofilm inhibitory concentration): 48 h
# Description: The ability of compounds 1f, 1g, and 1h to inhibit biofilm growth and destroy the matured biofilm of S. aureus ATCC 29213 was investigated. The inhibitory activity was studied by the method with crystal violet. The activity to disrupt matured biofilm was evaluated as a decrease of metabolic activity using the MTT assay.
# The plates were inoculated by inoculum of S. aureus ATCC 29213 grown in TSB + 2% glucose to exponential phase. Before the inoculation of the plate, the original inoculum was diluted to 1 McFarland and then 1:100 in fresh TSB + 2% glucose, to reach the final concentrations in the wells of […]. […] The plates were incubated at 37 °C for 48 h. After incubation, the contents of the wells were removed, and the plates were washed three times by sterile PBS. After drying, 125 μL of 0.5% crystal violet was added to each well and the plates were stained at room temperature for 20 min. Then the dye was removed, and the plates were washed three times by sterile PBS. The colored biofilm was detached from the wells using 33% solution of acetic acid. The absorbance at 595 nm was measured. As a blank, a non-inoculated plate treated in the same way was used. […] The minimum biofilm inhibitory concentration was the lowest concentration of the compounds, which inhibited the growth of 80% bacteria compared to the growth control. The experiment was made in duplicate and repeated at least three times.
# [11] = design: method as in PMID 30274224; details: isocratic RP-HPLC, extrapolated lipophilicity index; cited from earlier work
# [12] = ATCC29213, SA = S. aureus ATCC 29213, read-out: MICs
# [13] = ATCC29213, Table 7, planktonic cells of S. aureus ATCC 29213, read-out: MIC
SMILES,MIC (S. aureus ATCC 29213 [1]; [12]),MIC (S. aureus ATCC 29213 [1]; [13]) [µg/mL],MIC ([2]; MRSA1 = S. aureus 63718),MIC ([3]; MRSA3 = SA 3202),MIC ([4]; MRSA2 = SA 630),MIC ([5]; VRE1 = VRE 342B),MIC ([6]; VRE2 = VRE 368),MIC ([7]; VRE3 = VRE 725B),"IC50 ([8]; THP-1 cells, WST-1, 24 h) [µM]",crystal violet uptake compared with 1% Tween 20 (positive control) (S. aureus ATCC 29213 [9]),minimum biofilm inhibitory concentration relative to MIC against planktonic cells [10],MBIC80 (minimum biofilm inhibitory concentration) [10] [µg/mL],log kw [11],also measured
"CCCCCOc1cccc(NC(=O)OC(CN(CCC)CCC)CN2CCCC2)c1.Cl.Cl (centres unmarked) [1f, 1-[3-(dipropylammonio)-2-({[3-(pentyloxy)phenyl]carbamoyl}-oxy)propyl]pyrrolidinium dichloride]",16 µg/mL and 31.6 µM,16,16 µg/mL and 31.6 µM,16 µg/mL and 31.6 µM,32 µg/mL and 63.2 µM,16 µg/mL and 31.6 µM,16 µg/mL and 31.6 µM,16 µg/mL and 31.6 µM,4.19 ± 0.54,No statistically significant difference,two-fold higher,32,4.6722,–
"CCCCCCOc1cccc(NC(=O)OC(CN(CCC)CCC)CN2CCCC2)c1.Cl.Cl (centres unmarked) [1g, 1-[3-(dipropylammonio)-2-({[3-(hexyloxy)phenyl]carbamoyl}oxy)propyl]pyrrolidinium dichloride]",8 µg/mL and 15.4 µM,8,8 µg/mL and 15.4 µM,8 µg/mL and 15.4 µM,16 µg/mL and 30.8 µM,8 µg/mL and 15.4 µM,8 µg/mL and 15.4 µM,8 µg/mL and 15.4 µM,3.5 ± 0.31,No statistically significant difference,equal to minimum inhibitory concentration against planktonic cells,8,4.9446,–
"CCCCCCCOc1cccc(NC(=O)OC(CN(CCC)CCC)CN2CCCC2)c1.Cl.Cl (centres unmarked) [1h, 1-[3-(Dipropylammonio)-2-({[3-(heptyloxy)phenyl]carbamoyl}oxy)propyl]pyrrolidinium dichloride]",8 µg/mL and 15 µM,8,8 µg/mL and 15 µM,8 µg/mL and 15 µM,8 µg/mL and 15 µM,4 µg/mL and 7.51 µM,4 µg/mL and 7.51 µM,4 µg/mL and 7.51 µM,3.67 ± 0.01,No statistically significant difference,equal to minimum inhibitory concentration against planktonic cells,8,5.5384,–
"CN[C@H](CC(C)C)C(=O)N[C@H]1C(=O)N[C@@H](CC(N)=O)C(=O)N[C@H]2C(=O)N[C@H]3C(=O)N[C@H](C(=O)N[C@H](C(=O)O)c4cc(O)cc(O)c4-c4cc3ccc4O)[C@H](O)c3ccc(c(Cl)c3)Oc3cc2cc(c3O[C@@H]2O[C@H](CO)[C@@H](O)[C@H](O)[C@H]2O[C@H]2C[C@](C)(N)[C@H](O)[C@H](C)O2)Oc2ccc(cc2Cl)[C@H]1O [VAN, vancomycin, reference compound]",–,–,–,–,–,–,–,–,–,–,–,–,–,"MIC (S. aureus ATCC 29213 [1]; ATCC29213, read-out: MICs): 1 µg/mL and 0.69 µM; MIC [2]: 2 µg/mL and 1.38 µM; MIC [3]: 1 µg/mL and 0.69 µM; MIC [4]: 1 µg/mL and 0.69 µM; MIC ([5]; VRE): 512 µg/mL and 353 µM; MIC ([6]; VRE): 512 µg/mL and 353 µM; MIC ([7]; VRE): 1020 µg/mL and 706 µM; IC50 [8]: > 30 µM"
